Key:
Assay in all cases: relative viability (nuclei count vs DMSO), 5 days (fraction); higher = more cells survive
EMC-BAC-2 = test system: EMC-BAC-2
Procedure, shortened: (§1)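 Each reported value is a median over duplicate plates. It expresses relative viability: treated-well nuclei count divided by vehicle-well nuclei count. Lung cancer cell lines in 1536-well plates were dosed by pin tool a day after seeding, alone with one drug or with a fixed anchor-drug dose plus five library-drug doses (not always all listed) in √10 steps, and nuclei were counted after 5 days.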

COR-L23 = test system: COR-L23
Procedure, shortened: as §1

NCI-H1993 = test system: NCI-H1993
Procedure, shortened: as §1

ABC-1 = test system: ABC-1
Procedure, shortened: as §1

NCI-H1395 = test system: NCI-H1395
Procedure, shortened: as §1

NCI-H358 = test system: NCI-H358
Procedure, shortened: as §1

HARA = test system: HARA
Procedure, shortened: as §1

LC-2-ad = test system: LC-2-ad
Procedure, shortened: as §1

ChaGo-K-1 = test system: ChaGo-K-1
Procedure, shortened: as §1

NCI-H1944 = test system: NCI-H1944
Procedure, shortened: as §1

NCI-H838 = test system: NCI-H838
Procedure, shortened: as §1

SK-LU-1 = test system: SK-LU-1
Procedure, shortened: as §1

NCI-H1793 = test system: NCI-H1793
Procedure, shortened: as §1

NCI-H2023 = test system: NCI-H2023
Procedure, shortened: as §1

NCI-H2126 = test system: NCI-H2126
Procedure, shortened: as §1

HCC-15 = test system: HCC-15
Procedure, shortened: as §1

NCI-H23 = test system: NCI-H23
Procedure, shortened: as §1

NCI-H2405 = test system: NCI-H2405
Procedure, shortened: as §1

HCC-78 = test system: HCC-78
Procedure, shortened: as §1

HOP-62 = test system: HOP-62
Procedure, shortened: as §1

HCC-366 = test system: HCC-366
Procedure, shortened: as §1

COc1nc(C)cnc1NS(=O)(=O)c1cccnc1-c1ccc(-c2nnco2)cc1 [Zibotentan] + Nc1ncn([C@H]2C[C@H](O)[C@@H](CO)O2)c(=O)n1 [Decitabine] (partner 2 µM)
relative viability (EMC-BAC-2; first compound 0.08 µM): 1.01
relative viability (EMC-BAC-2; first compound 0.8 µM): 0.968
relative viability (EMC-BAC-2; first compound 2.53 µM): 1.01
relative viability (COR-L23; first compound 0.08 µM): 0.506
relative viability (COR-L23; first compound 0.253 µM): 0.402
relative viability (COR-L23; first compound 0.8 µM): 0.573
relative viability (COR-L23; first compound 2.53 µM): 0.455
relative viability (NCI-H1993; first compound 0.08 µM): 0.639
relative viability (NCI-H1993; first compound 0.253 µM): 0.576
relative viability (NCI-H1993; first compound 0.8 µM): 0.521
relative viability (NCI-H1993; first compound 2.53 µM): 0.61
relative viability (ABC-1; first compound 0.08 µM): 0.829
relative viability (ABC-1; first compound 0.253 µM): 1.12
relative viability (ABC-1; first compound 0.8 µM): 0.939
relative viability (ABC-1; first compound 2.53 µM): 1.06
relative viability (NCI-H1395; first compound 0.08 µM): 0.736
relative viability (NCI-H1395; first compound 0.253 µM): 0.68
relative viability (NCI-H1395; first compound 0.8 µM): 0.708
relative viability (NCI-H1395; first compound 2.53 µM): 0.674
relative viability (NCI-H358; first compound 0.08 µM): 0.196
relative viability (NCI-H358; first compound 0.253 µM): 0.139
relative viability (NCI-H358; first compound 2.53 µM): 0.222
relative viability (HARA; first compound 0.08 µM): 0.551
relative viability (HARA; first compound 0.8 µM): 0.515
relative viability (HARA; first compound 2.53 µM): 0.497
relative viability (LC-2-ad; first compound 0.08 µM): 0.66
relative viability (LC-2-ad; first compound 0.253 µM): 0.816
relative viability (LC-2-ad; first compound 0.8 µM): 0.718
relative viability (LC-2-ad; first compound 2.53 µM): 0.781
relative viability (ChaGo-K-1; first compound 0.08 µM): 0.512
relative viability (ChaGo-K-1; first compound 0.253 µM): 0.493
relative viability (ChaGo-K-1; first compound 0.8 µM): 0.508
relative viability (ChaGo-K-1; first compound 2.53 µM): 0.55
relative viability (NCI-H1944; first compound 0.08 µM): 0.433
relative viability (NCI-H1944; first compound 0.253 µM): 0.431
relative viability (NCI-H1944; first compound 0.8 µM): 0.425
relative viability (NCI-H1944; first compound 2.53 µM): 0.426
relative viability (NCI-H838; first compound 0.08 µM): 0.455
relative viability (NCI-H838; first compound 0.253 µM): 0.414
relative viability (NCI-H838; first compound 0.8 µM): 0.545
relative viability (NCI-H838; first compound 2.53 µM): 0.461
relative viability (SK-LU-1; first compound 0.08 µM): 0.805
relative viability (SK-LU-1; first compound 0.253 µM): 0.688
relative viability (SK-LU-1; first compound 0.8 µM): 0.722
relative viability (SK-LU-1; first compound 2.53 µM): 0.642
relative viability (NCI-H1793; first compound 0.08 µM): 0.503
relative viability (NCI-H1793; first compound 0.253 µM): 0.471
relative viability (NCI-H1793; first compound 0.8 µM): 0.528
relative viability (NCI-H1793; first compound 2.53 µM): 0.635
relative viability (NCI-H2023; first compound 0.08 µM): 0.245
relative viability (NCI-H2023; first compound 0.253 µM): 0.211
relative viability (NCI-H2023; first compound 0.8 µM): 0.203
relative viability (NCI-H2023; first compound 2.53 µM): 0.214
relative viability (NCI-H2126; first compound 0.08 µM): 0.617
relative viability (NCI-H2126; first compound 0.253 µM): 0.602
relative viability (NCI-H2126; first compound 0.8 µM): 0.599
relative viability (NCI-H2126; first compound 2.53 µM): 0.551
relative viability (HCC-15; first compound 0.08 µM): 0.607
relative viability (HCC-15; first compound 0.253 µM): 0.538
relative viability (HCC-15; first compound 0.8 µM): 0.727
relative viability (HCC-15; first compound 2.53 µM): 0.696
relative viability (NCI-H23; first compound 0.08 µM): 0.321
relative viability (NCI-H23; first compound 0.253 µM): 0.286
relative viability (NCI-H23; first compound 0.8 µM): 0.34
relative viability (NCI-H23; first compound 2.53 µM): 0.38
relative viability (NCI-H2405; first compound 0.08 µM): 0.764
relative viability (NCI-H2405; first compound 0.253 µM): 0.684
relative viability (NCI-H2405; first compound 0.8 µM): 0.767
relative viability (NCI-H2405; first compound 2.53 µM): 0.73
relative viability (HCC-78; first compound 0.08 µM): 0.795
relative viability (HCC-78; first compound 0.253 µM): 0.564
relative viability (HCC-78; first compound 0.8 µM): 0.68
relative viability (HCC-78; first compound 2.53 µM): 0.656
relative viability (HOP-62; first compound 0.08 µM): 0.169
relative viability (HOP-62; first compound 0.253 µM): 0.19
relative viability (HOP-62; first compound 0.8 µM): 0.209
relative viability (HOP-62; first compound 2.53 µM): 0.207
relative viability (HCC-366; first compound 0.08 µM): 0.391
relative viability (HCC-366; first compound 0.253 µM): 0.317
relative viability (HCC-366; first compound 0.8 µM): 0.331
relative viability (HCC-366; first compound 2.53 µM): 0.358
